Drawing on patent US10123993B2, “Cyclic ureas as inhibitors of rock” (BRISTOL-MYERS SQUIBB COMPANY, priority 2015, dated 2018), this text covers IC50 for 36 molecules.

Structures can show the parent of a compound that is named as a salt.

For this test, the target named is ROCK2 (Homo sapiens, UniProt O75116). Kind of test: ROCK2 kinase inhibition assay (Caliper LABCHIP, FITC peptide substrate). The class given is biochemical. The following applies: 5 μM ATP, 1.5 μM peptide substrate; value ranges. The gist of the method: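 Rho kinase with 5 μM ATP and 1.5 μM FITC-AHA-AKRRRLSSLRA-OH peptide in HEPES pH 7.5, 20 mM MgCl2, 0.015% Brij-35, 4 mM DTT, DMSO <2%. EDTA stop; phospho and non-phospho peptide separated on LabChip. IC50 from dose-response fit.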
Chain of ROCK2 (O75116 whole entry, species assumed): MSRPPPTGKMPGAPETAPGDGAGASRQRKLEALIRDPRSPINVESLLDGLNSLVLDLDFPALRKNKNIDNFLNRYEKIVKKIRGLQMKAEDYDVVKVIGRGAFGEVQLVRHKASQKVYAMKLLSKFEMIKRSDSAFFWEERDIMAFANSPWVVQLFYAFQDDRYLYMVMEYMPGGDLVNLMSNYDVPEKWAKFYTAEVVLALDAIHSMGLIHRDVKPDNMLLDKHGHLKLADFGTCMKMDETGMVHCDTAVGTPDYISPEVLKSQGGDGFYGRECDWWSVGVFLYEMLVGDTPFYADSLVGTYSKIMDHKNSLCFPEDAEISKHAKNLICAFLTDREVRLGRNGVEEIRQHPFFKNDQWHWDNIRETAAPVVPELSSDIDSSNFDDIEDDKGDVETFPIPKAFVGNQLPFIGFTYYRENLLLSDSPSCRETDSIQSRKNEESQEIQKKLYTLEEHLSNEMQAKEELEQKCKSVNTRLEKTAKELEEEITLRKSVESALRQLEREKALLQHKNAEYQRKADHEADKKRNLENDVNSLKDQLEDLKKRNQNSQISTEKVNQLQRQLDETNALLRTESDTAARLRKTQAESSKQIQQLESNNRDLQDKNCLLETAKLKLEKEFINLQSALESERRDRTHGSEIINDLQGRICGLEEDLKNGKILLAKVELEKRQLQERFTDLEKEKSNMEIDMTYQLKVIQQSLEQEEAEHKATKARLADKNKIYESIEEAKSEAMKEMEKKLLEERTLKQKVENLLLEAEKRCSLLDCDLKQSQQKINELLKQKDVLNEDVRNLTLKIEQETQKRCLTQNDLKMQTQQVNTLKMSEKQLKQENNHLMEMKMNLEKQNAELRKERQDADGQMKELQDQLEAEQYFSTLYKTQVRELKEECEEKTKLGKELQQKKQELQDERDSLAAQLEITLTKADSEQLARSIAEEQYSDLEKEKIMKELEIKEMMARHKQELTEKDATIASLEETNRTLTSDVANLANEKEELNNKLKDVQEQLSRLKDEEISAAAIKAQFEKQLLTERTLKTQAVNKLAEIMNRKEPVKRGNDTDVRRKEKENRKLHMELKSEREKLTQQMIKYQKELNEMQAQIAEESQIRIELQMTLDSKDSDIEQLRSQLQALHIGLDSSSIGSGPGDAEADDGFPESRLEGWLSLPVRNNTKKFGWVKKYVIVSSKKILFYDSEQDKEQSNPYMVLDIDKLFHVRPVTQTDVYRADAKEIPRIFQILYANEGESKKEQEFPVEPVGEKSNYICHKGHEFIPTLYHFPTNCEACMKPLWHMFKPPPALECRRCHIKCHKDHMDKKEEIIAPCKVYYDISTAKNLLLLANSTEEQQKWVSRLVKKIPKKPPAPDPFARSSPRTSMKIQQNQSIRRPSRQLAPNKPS
Take `COc1cccc(C(C)n2ccn(-c3ccc(-c4cn[nH]c4)c(OC)n3)c2=O)c1` (single isomer, unassigned) [Example 400, 1-(6-methoxy-5-(1H-pyrazol-4-yl)pyridin-2-yl)-3-(1-(3-methoxyphenyl)ethyl)-1H-imidazol-2(3H)-one]: the IC50 (commonly the concentration that gives 50% inhibition) was < 2 nM. In turn, `COc1cccc(C(C)n2ccn(-c3ccc(-c4cn[nH]c4)c(OC)n3)c2=O)c1` (single isomer, unassigned) [Example 401, 1-(6-methoxy-5-(1H-pyrazol-4-yl)pyridin-2-yl)-3-(1-(3-methoxyphenyl)ethyl)-1H-imidazol-2(3H)-one] registered an IC50 of 2.1 to 20 nM.

Consider `COc1cccc(C(C)N2CCN(c3ccc(-c4cn[nH]c4)cn3)C2=O)c1` (single isomer, unassigned) [Example 459, 1-(5-(1H-pyrazol-4-yl)pyridin-2-yl)-3-(1-(3-methoxyphenyl)ethyl)imidazolidin-2-one], for which the concentration for half-maximal inhibition (IC50) lay within 20.1 to 200 nM. Next, `COc1cccc(C(C)N2CCN(c3ccc(-c4cn[nH]c4)cn3)C2=O)c1` (single isomer, unassigned) [Example 460, 1-(5-(1H-pyrazol-4-yl)pyridin-2-yl)-3-(1-(3-methoxyphenyl)ethyl)imidazolidin-2-one]: < 2 nM; `COc1cccc(C(CO)N2CCN(c3ccc(-c4cn[nH]c4)cn3)C2=O)c1` (single isomer, unassigned) [Example 461, 1-(5-(1H-pyrazol-4-yl)pyridin-2-yl)-3-(2-hydroxy-1-(3-methoxyphenyl)ethyl)imidazolidin-2-one]: < 2 nM; `COc1cccc(C(CO)N2CCN(c3ccc(-c4cn[nH]c4)cn3)C2=O)c1` (single isomer, unassigned) [Example 462, 1-(5-(1H-pyrazol-4-yl)pyridin-2-yl)-3-(2-hydroxy-1-(3-methoxyphenyl)ethyl)imidazolidin-2-one]: 20.1 to 200 nM. Next, `COc1cccc(C(C)N2CCN(c3cc(C)c(-c4cn[nH]c4)cn3)C2=O)c1` (single isomer, unassigned) [Example 470, 1-(1-(3-methoxyphenyl)ethyl)-3-(4-methyl-5-(1H-pyrazol-4-yl)pyridin-2-yl)imidazolidin-2-one]: 20.1 to 200 nM; `COc1cccc(C(C)N2CCN(c3cc(C)c(-c4cn[nH]c4)cn3)C2=O)c1` (single isomer, unassigned) [Example 471, 1-(1-(3-methoxyphenyl)ethyl)-3-(4-methyl-5-(1H-pyrazol-4-yl)pyridin-2-yl)imidazolidin-2-one]: 20.1 to 200 nM; `COc1cccc(CN2C(=O)N(c3ccc(-c4cn[nH]c4)cc3)CC2CO)c1` (single isomer, unassigned; (+)) [Example 42, (+)-1-(4-(1H-Pyrazol-4-yl)phenyl)-4-(hydroxymethyl)-3-(3-methoxybenzyl)imidazolidin-2-one]: < 2 nM. The result for `COc1cccc(CN2C(=O)N(c3ccc(-c4cn[nH]c4)cc3)CC2C(C)(C)O)c1` (single isomer, unassigned; (+)) [Example 45, (+)-1-(4-(1H-Pyrazol-4-yl)phenyl)-4-(2-hydroxypropan-2-yl)-3-(3-methoxybenzyl)imidazolidin-2-one] reads < 2 nM; that for `COc1cccc(CN2CC(CO)N(c3ccc(-c4cn[nH]c4)cc3)C2=O)c1` (single isomer, unassigned; (+)) [Example 48, (+)-3-(4-(1H-Pyrazol-4-yl)phenyl)-4-(hydroxymethyl)-1-(3-methoxybenzyl)imidazolidin-2-one], 2.1 to 20 nM; that for `CC(c1ccccc1)n1ccn(-c2ccc(-c3cn[nH]c3)cc2)c1=O` (single isomer, unassigned; (+)) [Example 72, (+)-1-(4-(1H-pyrazol-4-yl)phenyl)-3-(1-phenylethyl)-1H-imidazol-2(3H)-one], 2.1 to 20 nM.

On to `COc1cccc(CN2C(=O)N(c3ccc(-c4cn[nH]c4)cc3)CC2CO)c1` (single isomer, unassigned; (-)) [Example 43, (−)-1-(4-(1H-Pyrazol-4-yl)phenyl)-4-(hydroxymethyl)-3-(3-methoxybenzyl)imidazolidin-2-one], for which the IC50 was < 2 nM. The result for `COc1cccc(CN2C(=O)N(c3ccc(-c4cn[nH]c4)cc3)CC2C(C)(C)O)c1` (single isomer, unassigned; (-)) [Example 44, (−)-1-(4-(1H-Pyrazol-4-yl)phenyl)-4-(2-hydroxypropan-2-yl)-3-(3-methoxybenzyl)imidazolidin-2-one] reads < 2 nM. As for `COc1cccc(CN2CC(CO)N(c3ccc(-c4cn[nH]c4)cc3)C2=O)c1` (single isomer, unassigned; (-)) [Example 47, (−)-3-(4-(1H-Pyrazol-4-yl)phenyl)-4-(hydroxymethyl)-1-(3-methoxybenzyl)imidazolidin-2-one], the IC50 lay within 20.1 to 200 nM. Next, `CC(c1ccccc1)n1ccn(-c2ccc(-c3cn[nH]c3)cc2)c1=O` (single isomer, unassigned; (-)) [Example 73, (−)-1-(4-(1H-pyrazol-4-yl)phenyl)-3-(1-phenylethyl)-1H-imidazol-2(3H)-one]: 20.1 to 200 nM; `O=C1N(CCc2ccccc2)CCN1c1ccc(-c2cn[nH]c2)cc1` [Example 1, 1-(4-(1H-Pyrazol-4-yl)phenyl)-3-phenethylimidazolidin-2-one]: 2.1 to 20 nM.

Molecule `COc1cccc(CN2CCN(c3ccc(-c4cn[nH]c4)cc3)C2=O)c1` [Example 2, 1-(4-(1H-pyrazol-4-yl)phenyl)-3-(3-methoxybenzyl)imidazolidin-2-one] yielded an IC50 of 2.1 to 20 nM. Next, `O=C1N(Cc2ccccc2)CCN1c1ccc(-c2cn[nH]c2)cc1` [Example 3, 1-(4-(1H-pyrazol-4-yl)phenyl)-3-benzylimidazolidin-2-one]: 2.1 to 20 nM. `O=C1N(Cc2cccc(F)c2)CCN1c1ccc(-c2cn[nH]c2)cc1` [Example 4, 1-(4-(1H-pyrazol-4-yl)phenyl)-3-(3-fluorobenzyl)imidazolidin-2-one] had an IC50 of 2.1 to 20 nM. Next, `O=C1N(Cc2ccc(F)cc2)CCN1c1ccc(-c2cn[nH]c2)cc1` [Example 5, 1-(4-(1H-pyrazol-4-yl)phenyl)-3-(4-fluorobenzyl)imidazolidin-2-one]: 20.1 to 200 nM; `COc1cc(N2CCN(Cc3cccc(F)c3)C2=O)ccc1-c1cn[nH]c1` [Example 6, 1-(3-Fluorobenzyl)-3-(3-methoxy-4-(1H-pyrazol-4-yl)phenyl)imidazolidin-2-one]: 2.1 to 20 nM; `COc1cccc(CN2CCN(c3ccc(-c4cn[nH]c4)c(OC)c3)C2=O)c1` [Example 7, 1-(3-Methoxy-4-(1H-pyrazol-4-yl)phenyl)-3-(3-methoxybenzyl)imidazolidin-2-one]: 2.1 to 20 nM. In the case of `COc1cc(N2CCN(CCc3ccc(F)cc3)C2=O)ccc1-c1cn[nH]c1` [Example 8, 1-(4-Fluorophenethyl)-3-(3-methoxy-4-(1H-pyrazol-4-yl)phenyl)imidazolidin-2-one], the half-inhibitory concentration (IC50) was 200 to 2000 nM. The result for `COc1cc(-c2cn[nH]c2)ccc1N1CCN(Cc2cccc(F)c2)C1=O` [Example 9, 1-(3-Fluorobenzyl)-3-(2-methoxy-4-(1H-pyrazol-4-yl)phenyl)imidazolidin-2-one] reads 20.1 to 200 nM; that for `COc1cccc(CN2CCN(c3ccc(-c4cn[nH]c4)cc3OC)C2=O)c1` [Example 10, 1-(2-Methoxy-4-(1H-pyrazol-4-yl)phenyl)-3-(3-methoxybenzyl)imidazolidin-2-one], 2.1 to 20 nM. Take `COc1cc(-c2cn[nH]c2)ccc1N1CCN(CCc2ccccc2F)C1=O` [Example 11, 1-(2-Fluorophenethyl)-3-(2-methoxy-4-(1H-pyrazol-4-yl)phenyl)imidazolidin-2-one]: the IC50 was 20.1 to 200 nM. Next, `COc1cc(-c2cn[nH]c2)ccc1N1CCN(Cc2ccccc2)C1=O` [Example 12, 1-Benzyl-3-(2-methoxy-4-(1H-pyrazol-4-yl)phenyl)imidazolidin-2-one]: 200 to 2000 nM. As for `COc1cccc([C@@H](C)N2CCN(c3ccc(-c4cn[nH]c4)c(OC)c3)C2=O)c1` [Example 13, (R)-1-(3-Methoxy-4-(1H-pyrazol-4-yl)phenyl)-3-(1-(3-methoxyphenyl)ethyl)imidazolidin-2-one], the IC50 is < 2 nM. Take `COc1cccc([C@@H](C)N2CCN(c3ccc(-c4cn[nH]c4)cc3OC)C2=O)c1` [Example 14, (R)-1-(2-Methoxy-4-(1H-pyrazol-4-yl)phenyl)-3-(1-(3-methoxyphenyl)ethyl)imidazolidin-2-one]: the IC50 is 20.1 to 200 nM. Consider `COc1ccc(F)c(CN2CCN(c3ccc(-c4cn[nH]c4)c(OC)c3)C2=O)c1` [Example 15, 1-(2-Fluoro-5-methoxybenzyl)-3-(3-methoxy-4-(1H-pyrazol-4-yl)phenyl)imidazolidin-2-one], for which the IC50 was in the range of 20.1 to 200 nM.

`COc1cc(N2CCN(Cc3c(F)cccc3F)C2=O)ccc1-c1cn[nH]c1` [Example 16, 1-(2,6-Difluorobenzyl)-3-(3-methoxy-4-(1H-pyrazol-4-yl)phenyl)imidazolidin-2-one] gave an IC50 of 20.1 to 200 nM. As for `COc1cc(N2CCN(Cc3ccccc3F)C2=O)ccc1-c1cn[nH]c1` [Example 17, 1-(2-Fluorobenzyl)-3-(3-methoxy-4-(1H-pyrazol-4-yl)phenyl)imidazolidin-2-one], the IC50 was in the range of 20.1 to 200 nM. Molecule `COc1cc(N2CCN(Cc3ccccc3)C2=O)ccc1-c1cn[nH]c1` [Example 18, 1-Benzyl-3-(3-methoxy-4-(1H-pyrazol-4-yl)phenyl)imidazolidin-2-one] yielded a half-inhibitory concentration (IC50) of 20.1 to 200 nM. The result for `COc1cccc(C(CC(=O)O)N2CCN(c3ccc(-c4cn[nH]c4)c(OC)c3)C2=O)c1` (stereo not drawn) [Example 19, 3-(3-(3-Methoxy-4-(1H-pyrazol-4-yl)phenyl)-2-oxoimidazolidin-1-yl)-3-(3-methoxyphenyl)propanoic Acid, TFA] reads 20.1 to 200 nM; that for `COC(=O)CC(c1cccc(OC)c1)N1CCN(c2ccc(-c3cn[nH]c3)c(OC)c2)C1=O` (stereo not drawn) [Example 20, Methyl 3-(3-(3-methoxy-4-(1H-pyrazol-4-yl)phenyl)-2-oxoimidazolidin-1-yl)-3-(3-methoxyphenyl)propanoate], 200 to 2000 nM.
